Experimental data published in patent US6806281B2 (Georgetown University, priority 1997, dated 2004).

What was measured:
Locomotor activity = format: in vivo, Sprague-Dawley rats
Method: The locomotor effects of compound 2 were evaluated using male Swiss Webster mice according to previously published procedures: Izenwasser, S., Terry, P., Heller, B., Witkin, J. M., and Katz, J. L. (1994) Differential relationships among dopamine transporter affinities and stimulant potencies of various uptake inhibitors. Eur. J. Pharmacol., 263, 277-283.
Thus the small behavioral responses to the piperidine analog appear to last longer than that of cocaine.

[1] = Drug discrimination, amphetamine substitution tests; format: in vivo, rats; conditions: for response rates: across all test doses
[2] = Drug discrimination, cocaine substitution and co-administration tests; format: in vivo, rats
[3] = Intravenous drug self-administration; format: in vivo, rats; conditions: for self-administration responding: i.v., FR10, cocaine 1 mg/kg/infusion, analog 2 0.3-3 mg/kg/infusion, analog 3 0.125-0.5 mg/kg infusion, vs saline extinction
Description: J. Neurosci., 16, 7416-7427.
Rats were initially trained to lever press for food pellets in standard operant boxes. Following lever press training, rats were implanted with polyvinyl chloride catheters into femoral veins under halothane anesthesia (2-3% in medical grade oxygen) and were allowed to recover for an additional 7 days before initiation of i.v. drug self-administration testing. During drug self-administration sessions, food pellets were no longer delivered, and instead intravenous injections of drugs were delivered by way of the catheter.
Following this second extinction test, self-administration of piperidine analog 2 was studied at doses of 1, 3, and 0.3 mg/kg/infusion in that order. Each dose was tested for five days. During all the re-acquisition test days, a priming infusion was given at the start of the session on each day.

dopamine transporter [4] = molecular target: T1, dopamine transporter (Rattus norvegicus, UniProt P23977); assay: biochemical; conditions: IC50 (nM) [3H]WIN 35,428 binding, rat striatal membranes
T1 sequence (P23977 whole entry): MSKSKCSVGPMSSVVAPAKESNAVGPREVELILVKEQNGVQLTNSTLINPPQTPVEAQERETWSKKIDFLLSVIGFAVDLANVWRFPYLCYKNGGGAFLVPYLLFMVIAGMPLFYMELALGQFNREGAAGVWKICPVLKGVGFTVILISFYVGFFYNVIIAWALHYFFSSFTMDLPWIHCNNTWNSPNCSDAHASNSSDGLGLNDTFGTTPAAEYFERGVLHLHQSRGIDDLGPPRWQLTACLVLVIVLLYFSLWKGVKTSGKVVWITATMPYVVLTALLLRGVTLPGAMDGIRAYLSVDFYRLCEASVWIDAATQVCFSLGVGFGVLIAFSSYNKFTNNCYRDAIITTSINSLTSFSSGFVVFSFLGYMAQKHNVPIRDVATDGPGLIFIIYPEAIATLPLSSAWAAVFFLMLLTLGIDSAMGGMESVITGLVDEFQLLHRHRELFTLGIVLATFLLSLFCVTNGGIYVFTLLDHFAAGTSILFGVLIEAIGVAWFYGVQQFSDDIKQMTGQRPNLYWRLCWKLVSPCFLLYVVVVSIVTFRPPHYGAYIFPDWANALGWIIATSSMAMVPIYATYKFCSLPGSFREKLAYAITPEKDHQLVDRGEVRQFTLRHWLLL

dopamine transporter [5] = molecular target: T1, dopamine transporter; assay: biochemical; conditions: IC50 (nM) [3H]dopamine uptake, rat striatal synaptosomes
dopamine transporter [6] = molecular target: T1, dopamine transporter; conditions: relative to cocaine
dopamine transporter [7] = molecular target: T1, dopamine transporter; conditions: relative to cocaine; remark: listed apart in the source
[8] = system: striatal dopamine transporter; assay: PET evaluation of 11C-labeled isomers; conditions: for specific binding to striatal dopamine transporter sites: in vivo PET
Method: The products were purified by HPLC on a C-18 cartridge eluted with MeOH:phosphate/triethylamine buffer, pH 7.2 (60:40).
After passage through a 0.22 μm filter, the sterile products were administered to three Rhesus monkeys and dynamic PET images were acquired over 90 minutes.

In the case of `COC(=O)C1CN(C)CCC1c1ccc(Cl)cc1` (racemic) [(±)-2, (±)-cis-Methyl 4-(4-Chlorophenyl)-1-methylpiperidine-3-carboxylate], the “time-course of stereotypic response” value (Locomotor activity; 90 minutes following the drug injection) is reported as “persistent at 90 minutes”, the convulsions (Locomotor activity; doses higher than 20 mg/kg i.p.) is reported as “produce convulsions” and the distance traveled (Locomotor activity; i.p., cocaine 10 mg/kg, analog 2 3-20 mg/kg, compared to saline control) is reported as “did not alter the distance traveled”. The “stereotypic behavior / stereotypic time” value (Locomotor activity; i.p., cocaine 10 mg/kg, analog 2 10 and 20 mg/kg, compared to saline control) was “small, statistically nonsignificant increase in stereotypic time”, the response rates [1] was “remained fairly stable” and the “effect of co-administration on drug choice and response rate of cocaine” value ([2]; analog 2 10 mg/kg plus cocaine 1.25 and 5 mg/kg) was “did not significantly alter drug choice”. The “response rates compared with cocaine (10 mg/kg)” value ([2]; analog 2 5 and 10 mg/kg) was “substantially lower”, the maximum cocaine-lever responding ([2]; analog 2 5 and 20 mg/kg) was 40% and the “number of infusions delivered” value ([3]; analog 2, all doses tested (0.3-3 mg/kg/infusion), vs saline extinction test) was “not significantly different from that of the saline extinction test”. The self-administration responding [3] was “failed to restore the self-administration responding”.

`COC(=O)[C@@H]1CN(C)CC[C@@H]1c1ccc(Cl)cc1` (racemic) [Compound (±)-1, (±)-cis-Methyl 4-(4-Chlorophenyl)-1-methylpiperidine-3-carboxylate] showed a melting point of 98 to 99 °C.

Compound `COC(=O)C1CN(C)CCC1c1ccc(Cl)cc1` (single isomer, unassigned; (+)) [(+)-11, (+)-Methyl 4β-(4-chlorophenyl)-1-methylpiperidine-3α-carboxylate] has an IC50 (dopamine transporter [4]) of 57.3 ± 8.1 nM and an IC50 (dopamine transporter [5]) of 34.6 ± 3.2 nM.

`CCCC1CN(C)CCC1c1ccc(Cl)cc1` (single isomer, unassigned; (+)) [(+)-15, (+) 4β-(4-chlorophenyl)-1-methyl-3α-n-propylpiperidine] showed an IC50 (dopamine transporter [4]) of 17.2 ± 0.5 nM and an IC50 (dopamine transporter [5]) of 23.2 ± 2.2 nM.

In the case of `COC(=O)C1CN(C)CCC1c1ccc(Cl)cc1` (single isomer, unassigned; (-)) [(−)-3, (−)-Methyl 4β-(4-chlorophenyl)-1-methylpiperidine-3β-carboxylate], the self-administration responding [3] is reported as “rats reliably self-administered this compound”, the IC50 (dopamine transporter [4]) is reported as 24.8 ± 1.6 nM and the IC50 (dopamine transporter [5]) is reported as 85.2 ± 2.6 nM.

`CN1CCC(c2ccc(Cl)cc2)C(CO)C1` (single isomer, unassigned; (-)) [(−)-5, (−)-4β-(4-Chlorophenyl)-3β-(hydroxymethyl)-1-methylpiperidine] showed an IC50 (dopamine transporter [5]) of 49 ± 3 nM.

`CC(=O)OCC1CN(C)CCC1c1ccc(Cl)cc1` (single isomer, unassigned; (-)) [(−)-7, (−)-3β-(Acetoxymnethyl)-4β-(4-chlorophenyl)-1-methylpiperidine] gave a melting point of 76 °C, an IC50 (dopamine transporter [4]) of 44.7 ± 10.5 nM and an IC50 (dopamine transporter [5]) of 62.9 ± 2.7 nM.

For `CCCC1CN(C)CCC1c1ccc(Cl)cc1` (single isomer, unassigned; (-)) [(−)-9, (−) 4β-(4-chlorophenyl)-1-methyl-3β-n-propylpiperidine], the “fold more potent than cocaine in binding affinity” value (dopamine transporter [6]) was 33 fold, the “fold more potent than cocaine in inhibition of dopamine uptake” value (dopamine transporter [7]) was 29 fold and the IC50 (dopamine transporter [4]) was 3 nM. The IC50 (dopamine transporter [5]) was 8.3 ± 0.6 nM.

In the case of `COC(=O)C1CN(C)CCC1c1ccc(Cl)cc1` (single isomer, unassigned; isomer 4) [cis isomer, 4-(4-chlorophenyl)-3-carbomethoxy-N-methylpiperidine], the “accumulation in brain regions (dynamic PET)” value ([8]; 11C-labeled, PET images over 90 minutes) is reported as “greater nonspecific accumulation in the cortex” and the “specific binding to striatal dopamine transporter sites” value [8] is reported as “high levels of specific binding”.

In the case of `COC(=O)C1CN(C)CCC1c1ccc(Cl)cc1` (single isomer, unassigned; isomer 4) [trans isomer, 4-(4-chlorophenyl)-3-carbomethoxy-N-methylpiperidine], the “specific binding to striatal dopamine transporter sites” value [8] is reported as “high levels of specific binding” and the “striatal activity after unlabeled CFT” value ([8]; unlabeled CFT administered 60 minutes after injection) is reported as “selective decrease in the striatal activity”.

With `CC(N)Cc1ccccc1` (centres unmarked) [amphetamine] the response rates [1] was “remained fairly stable” and the “substitution for the discriminative stimulus effects of amphetamine” value ([1]; substitution tests) was “dose-dependent and complete substitution”.
